In US20220370461A1, “USE OF IMIDAZOPYRIMIDINE OR IMIDAZOTRIAZINE COMPOUNDS FOR PREVENTION, ALLEVIATION, OR TREATMENT OF COGNITIVE DISORDERS, OR FOR IMPROVING COGNITIVE FUNCTION” (SK BIOPHARMACEUTICALS CO., LTD., priority 2019, published 2022):

Experiments:
Format in all cases: in vivo
[1] = test system: rat model exhibiting cognitive ability decreased by treatment with dizocilpine; assay: Object recognition test in rat model with cognitive ability decreased by dizocilpine; details: for recognition index: P<0.01 vs negative control
Description: As an animal model of cognitive disorder, an animal model of which the cognitive ability was decreased by administering dizocilpine, a cognitive inhibitor, was used.
(§1) Male rats (Wistar, 4 weeks old, Orient Bio Co., Ltd.) were purchased and acclimatized for one week or more in an animal cage. The experimental animals were raised in a light-controlled environment (illuminated for 12 hours/nonilluminated for 12 hours) and stored and managed according to the laboratory animal care standards of the Institutional Animal Care and Use Committee (IACUC) in an environment where a temperature of 19° C. to 25° C. and a relative humidity of 30% to 70% were maintained and water and food could be freely available. The rats were stabilized for one week or more, and then used for an object recognition test. The rats were randomly divided into groups and the test was performed under illumination.
To create an animal model inducing symptoms of decreased cognitive ability, the experimental animals were treated with dizocilpine, an N-methyl-D-aspartate (NMDA) receptor inhibitor.
(§2) Dizocilpine (purchased from Sigma) was dissolved in physiological saline used as a vehicle to be freshly prepared, and subcutaneously administered at a dose of 0.1 mg/kg in a volume of 1 ml per 1 kg of rat body weight 30 minutes before training. To a control group, only physiological saline was administered.
The test compound was dissolved in 5% DMSO (dimethyl sulfoxide) in 10% Cremophor, and orally administered at doses of 0.03, 0.1, and 0.3 mg/kg in a volume of 1 ml per 1 kg of rat body weight one hour before training. To a control group, only vehicle (5% DMSO in 10% Cremophor) was administered.
Each rat was handled by the experimenter for 3 minutes or more, and box acclimation for 3 minutes was performed two times in an empty box before the experiment. After administration of vehicle or test compound intraperitoneally at a dose of 1 mg/kg one hour before training and of vehicle or dizocilpine subcutaneously 30 minutes before training, the rats were boxed for training. Training was conducted by exposing the rats in a box in which two identical plastic cylinders or stainless square pyramids were placed. One hour after training, the test was performed in a box in which one plastic cylinder and one stainless square pyramid was placed. During the test, the time during which the rat explored each object was measured. The test results were analyzed using a stainless square pyramid as a novel object in the case of rats trained in a box in which two plastic cylinders were placed and a plastic cylinder as a novel object in the case of rats trained in a box in which two stainless steel pyramids were placed.
The recognition index was calculated based on the time during which the object was explored, the data on the recognition index between groups was analyzed by one-way analysis of variance (ANOVA) and Dunnett's multiple comparison test, and then the effect was defined as significant when p<0.05. All results were expressed as mean±SEM.

[2] = test system: rat model exhibiting cognitive ability decreased by treatment with dizocilpine; assay: Y-maze test in rat model with cognitive ability decreased by dizocilpine
Description: as §1, with “Committee” for “Committee (IACUC)”, “a Y-maze” for “an object recognition”
To create an animal model inducing symptoms of decreased cognitive ability, experimental animals were treated with dizocilpine, an NMDA receptor inhibitor.
as §2
The test compound was dissolved in 5% DMSO in 9.5% Cremophor, and orally administered at doses of 0.1, 0.3, and 1 mg/kg in a volume of 5 ml per 1 kg of rat body weight one hour before training. To a control group, only vehicle (5% DMSO in 9.5% Cremophor) was administered.
The rats were handled by the experimenter for 3 minutes for two days, and a Y-maze test was performed the next day. After administration of vehicle or test compound intraperitoneally one hour before test and of vehicle or dizocilpine subcutaneously 30 minutes before test, the Y-maze test was performed for 5 minutes by placing the rat at the end of one arm in the Y-maze and allowing the rat to move freely. The three arms positioned at the same angle in the Y-maze had the same length of 45 cm, the same width of 10 cm, and the same height of 20 cm. A case where a rat visited three different arms in succession was defined as an alternation behavior.
The alternation rate was determined by identifying the alternation behavior of the rat based on the visit record to each arm in the Y-maze test, the data on the alternation rate between groups was analyzed by one-way ANOVA and Dunnett's multiple comparison test, and then the effect was defined as significant when p<0.05. All results were expressed as mean±SEM.

[3] = test system: rat model undergone natural forgetting; assay: Object recognition test in natural forgetting rat model; details: for Recognition index (mean ± SEM): test 24 h after training

C[C@]12N[C@H](Cc3ccccc31)c1ccccc12 [Dizocilpine, dizocilpine, reference compound]
Recognition index (mean ± SEM) ([1]; dizocilpine 0.1 mg/kg sc only (negative control), vehicle group 63.29 ± 1.56): 49.77 ± 1.03 | Alternation rate (mean ± SEM) ([2]; dizocilpine 0.1 mg/kg sc only (negative control), vehicle group 70.1 ± 2.8): 49.2 ± 5.3 | alternation rate ([2]; dizocilpine only (negative control), P<0.001 vs vehicle group): 49.2 ± 5.3%

Fc1ccc(-c2cnc3nc(COc4ccccn4)cn3c2)c(C(F)(F)F)c1 [test compound, 6-[4-fluoro-2-(trifluoromethyl)phenyl]-2-(2-pyridyloxymethyl)imidazo[1,2-a]pyrimidine]
Recognition index (mean ± SEM) ([1]; dizocilpine 0.1 mg/kg sc + test compound 0.03 mg/kg po, test 1 h after training, index = novel/total exploring time × 100): 51.95 ± 1.79 | Recognition index (mean ± SEM) ([1]; dizocilpine 0.1 mg/kg sc + test compound 0.1 mg/kg po, test 1 h after training): 57.95 ± 1.8 | Recognition index (mean ± SEM) ([1]; dizocilpine 0.1 mg/kg sc + test compound 0.3 mg/kg po, test 1 h after training): 57.62 ± 1.89 | recognition index ([1]; dizocilpine + test compound 0.1 mg/kg): 57.95±1.8% | recognition index ([1]; dizocilpine + test compound 0.3 mg/kg): 57.62±1.89% | Recognition index (mean ± SEM) ([3]; test compound 0.1 mg/kg po, first experiment, vehicle 48.61 ± 1.87): 56.57 ± 2.37 | recognition index ([3]; test compound 0.1 mg/kg, first experiment, P<0.05 vs control): 56.57±2.37 | Recognition index (mean ± SEM) ([3]; test compound 0.3 mg/kg po, first experiment): 59.77 ± 2.64 | recognition index ([3]; test compound 0.3 mg/kg, first experiment, P<0.01 vs control): 59.77±2.64 | Recognition index (mean ± SEM) ([3]; test compound 1 mg/kg po, second experiment, vehicle 51.20 ± 2.61): 60.91 ± 2.72 | recognition index ([3]; test compound 1 mg/kg, second experiment, P<0.01 vs control): 60.91±2.72 | Recognition index (mean ± SEM) ([3]; test compound 3 mg/kg po, second experiment): 56.20 ± 2.27 | recognition index ([3]; test compound 3 mg/kg, second experiment): 56.20±2.27 | Alternation rate (mean ± SEM) ([2]; dizocilpine 0.1 mg/kg sc + test compound 0.1 mg/kg po, 5 min Y-maze, actual/maximum possible alternations × 100): 67.3 ± 3.5 | Alternation rate (mean ± SEM) ([2]; dizocilpine 0.1 mg/kg sc + test compound 0.3 mg/kg po): 57.3 ± 5.7 | Alternation rate (mean ± SEM) ([2]; dizocilpine 0.1 mg/kg sc + test compound 1 mg/kg po): 49.9 ± 7.2 | alternation rate ([2]; dizocilpine + test compound 0.1 mg/kg, P<0.001 vs negative control): 67.3 ± 3.5% | alternation rate ([2]; dizocilpine + test compound 0.3 mg/kg, tendency toward recovery): 57.3 ± 5.7%
